Test results taken from US20150374705A1, “Substances for treatment or relief of pain” (Shanghai Institues for Biological Sciences, priority 2012, published 2015).
Entries after “also recorded” stand apart in the source; their conditions may differ. Where two headings read alike, the source gives them in different places.

How the values were obtained:
[1] = system: SNI model rats (neuropathic pain); test: Spared nerve injury (SNI) model, neuropathic pain, mechanical pain threshold; format: in vivo; conditions: rat; for Neuropathic pain (SNI model), analgesic effect: 3 mg/kg subcutaneous, 14 days after SNI, 1 hour after administration
Experimental: Male SD rats (200-250 g) were used, 6 per group in the cage. All the animals were placed under 12 hours light/cycle (i.e. 12 hours light and 12 hours dark in each day), free to food and water. All the experiments were conducted under the condition that the observers were blind to pharmaceutical treatment.
Spared nerve injury model (SNI): 10% chloral hydrate was injected intraperitoneally to anesthetize rats. […] The muscle was longitudinally separated to expose the core of sciatic nerve and the branching below: tibial nerve, common peroneal nerve and sural nerve. The tibial nerve and common peroneal nerve were ligatured and cut and small sural nerve was retained, meanwhile preventing any injury. The muscle and skin were sutured layer by layer, and then antibiotics were injected intraperitoneally for antibacterial purpose. For detailed methods, please refer to Decosterd I and Woolf C J. Spared nerve injury: an animal model of persistent peripheral neuropathic pain. 2000 August; Pain 87(2):149-58.
Method for detecting mechanical hyperalgesia in rats: firstly CFA solution was injected in the thenar of rats. After 24 hours, mechanical hyperalgesia quantitative detection was adopted to measure the paw withdrawal of rats to normal and harmless mechanical stimulation. Evaluation was conducted according to reference (Chaplan S R et al., Quantitative assessment of tactile allodynia in the rat paw. J Neurosci Methods. 1994 July; 53(1):55-63). In this method, the von Frey fibers with different bending force (equivalent to the range of 1-50 g force) were used to apply harmless mechanical stimulation. The rats were placed in organic glass box with metal mesh plate, and the von Frey fibers were applied on the surface of leg thenar. The von Frey fibers were applied vertically to the surface of thenar to generate the force that will trigger slight resistance to the leg. 2-3 seconds were maintained for every leg thenar. If the leg withdrew suddenly, positive records were recorded. The threshold was the mean of the weight that caused 50% paw withdrawal response (5-6 paw withdrawal/10 stimulations) in overall 10 stimulations.
Compounds MRK 016, C2, C3, C4, C5, C6, C7, C8 or α5IA (A5I) were dissolved in 70% PGE400 (PGE400:water=70:30 in volume). For injection dose, MRK016 was 2 mg/kg body weight; A5I was 3 mg/kg body weight; C2, C3, C4, C5, C6, C7 and C8 were 3 mg/kg body weight.
MRK016-M3 was dissolved in 90% PGE400 (PGE400:water=90:10 in volume). The doses were 10 mg/kg, 3 mg/kg, 1 mg/kg and 0.3 mg/kg, respectively for oral administration.
The method for behavioral data statistics was unpaired t-test. *, p<0.05, represents significant difference.

[2] = system: CFA induced inflammatory pain model rats (mechanical pain); test: CFA induced inflammatory pain model, mechanical pain threshold; format: in vivo; conditions: rat, 3 mg/kg injection, 7 days after CFA, 1 hour after administration
[3] = system: CFA induced inflammatory pain model rats (heat pain); test: CFA induced inflammatory pain model, heat pain threshold; format: in vivo; conditions: rat, 3 mg/kg injection, 3 days after CFA, 1 hour after administration
[4] = Tissue distribution, brain/plasma ratio by LC-MS; format: in vivo, rat; conditions: for Kp at 1 h: sc, 3 mg/kg, subcutaneous injection, 1 hour after injection; for Kp at 1 h / Kp: rat
Experimental: The second method was to measure the tissue distribution of the substance to be measured in animal tissues. Firstly the candidate substance was administrated to animals by injection (or oral administration). The brain tissue and plasma tissue were extracted 0.25-2.0 hours after injection. liquid Chromatograph Mass SpectrometerL-MS was used to measure the concentration of the drug. If the brain/plasma ratio of the compound is less than 0.5, then the candidate substance is a potential drug for treating pain with fewer side effects.
Meanwhile, the inventors detected the distribution of these compounds in the tissue of rats. Firstly the substances to be measured were subcutaneously injected into the body of animals. Then brain tissue and plasma tissue were extracted 1 hour after injection. Ls-MS was used to measure the concentration of drugs. If the brain/plasma ratio of the compound is less than 0.1, then the candidate substance is a potential drug for treating pain with fewer side effects.

[5] = brain and plasma extracted 0.25-2.0 hours after injection, LC-MS

Row | SMILES | Neuropathic pain (SNI model), analgesic effect [1] | CFA induced inflammatory pain model (mechanical pan), analgesic effect [2] | CFA induced inflammatory pain model (heat pain), analgesic effect [3] | Kp at 1 h ([4]; brain and plasma, LC-MS) | also measured
1 | FC(F)c1ncn2c1Cn1ncnc1-c1cc(Br)ccc1-2 [drawing 58] | Significant analgesic effect | Significant analgesic effect | Significant analgesic effect | > 0.2 | –
2 | NCC1(CC(=O)O)CCCCC1 [gabapentin] | – | – | – | – | Suppression of neuropathic pain ([1]; 11 days after SNI model): efficiently suppressed neuropathic pain
3 | Clc1ncn2c1Cn1ncnc1-c1cc(Br)ccc1-2 [drawing 57] | Significant analgesic effect | Significant analgesic effect | Significant analgesic effect | < 0.1 | –
4 | CC(C)(C)C1C(OCc2ccccn2)=NN2C(c3cc(CO)on3)=NN=CC12 (stereo not drawn) [Compound C2, (3-(3-tert-butyl-2-(2-pyridylmethoxyl)-3,3a-2H-pyrazolo[1,5-d][1,2,4]triazin-7-yl)isoxazole-5-yl)methanol] | – | – | – | – | Neuropathic pain (SNI model), analgesic effect ([1]; 3 mg/kg): efficiently treat pain; also recorded: efficiently suppressed neuropathic pain; CFA induced inflammatory pain model (mechanical pan), analgesic effect ([2]; 3 mg/kg): efficiently treat pain; also recorded: efficiently suppressed heat pain or mechanical pain response; CFA induced inflammatory pain model (heat pain), analgesic effect ([3]; 3 mg/kg): efficiently treat chronic pain; also recorded: efficiently suppressed heat pain or mechanical pain response
5 | OCc1cc(-c2nnc3c4ccccc4c(OCc4cccnc4)nn23)no1 [Compound C6, {3-[6-(Pyridin-3-ylmethoxy)-[1,2,4]triazolo[3,4-a]phthalazin-3-yl]-isoxazol-5-yl}-methanol] | – | – | – | – | Neuropathic pain (SNI model), analgesic effect ([1]; 3 mg/kg): efficiently inhibit nociceptive response; also recorded: efficiently suppressed neuropathic pain; CFA induced inflammatory pain model (mechanical pan), analgesic effect ([2]; 3 mg/kg): efficiently inhibit nociceptive response; also recorded: efficiently suppressed heat pain or mechanical pain response; CFA induced inflammatory pain model (heat pain), analgesic effect ([3]; 3 mg/kg): efficiently inhibit nociceptive response; also recorded: efficiently suppressed heat pain or mechanical pain response
6 | Cc1ncn2c1Cn1ncnc1-c1cc(Cl)ccc1-2 | Significant analgesic effect | Significant analgesic effect | Significant analgesic effect | 0.2 | –
7 | OCc1cc(-c2nnc3c4ccccc4c(OCc4ccncc4)nn23)no1 [Compound C7, {3-[6-(Pyridin-4-ylmethoxy)-[1,2,4]triazolo[3,4-a]phthalazin-3-yl]isoxazol-5-yl}-methanol] | – | – | – | – | Neuropathic pain (SNI model), analgesic effect ([1]; 3 mg/kg): efficiently inhibit nociceptive response; also recorded: efficiently suppressed neuropathic pain; CFA induced inflammatory pain model (mechanical pan), analgesic effect ([2]; 3 mg/kg): efficiently inhibit nociceptive response; also recorded: efficiently suppressed heat pain or mechanical pain response; CFA induced inflammatory pain model (heat pain), analgesic effect ([3]; 3 mg/kg): efficiently inhibit nociceptive response; also recorded: efficiently suppressed heat pain or mechanical pain response
8 | Clc1ncn2c1Cn1ncnc1-c1cc(I)ccc1-2 | Significant analgesic effect | Significant analgesic effect | Significant analgesic effect | < 0.1 | –
9 | Clc1ncn2c1Cn1ncnc1-c1cc(Br)ccc1-2 [drawing 28] | – | – | – | – | Passing blood brain barrier [4, 5]: more slightly passing blood brain barrier; Kp ([4]; in vivo): < 0.5
10 | Cc1ncn2c1Cn1ncnc1-c1cc(Br)ccc1-2 | Significant analgesic effect | Significant analgesic effect | Significant analgesic effect | < 0.2 | –
11 | Cc1ncn2c1Cn1ncnc1-c1cc(C(F)F)ccc1-2 | Significant analgesic effect | Significant analgesic effect | Significant analgesic effect | – | –
12 | Cc1ncn2c1Cn1ncnc1-c1cc(I)ccc1-2 | Significant analgesic effect | Significant analgesic effect | Significant analgesic effect | < 0.1 | –
13 | FC(F)c1ccc2c(c1)-c1ncnn1Cc1c(Cl)ncn1-2 | Significant analgesic effect | Significant analgesic effect | Significant analgesic effect | – | –
14 | FC(F)c1ncn2c1Cn1ncnc1-c1cc(Br)ccc1-2 [drawing 27] | – | – | – | – | Passing blood brain barrier [4, 5]: slightly passing blood brain barrier; Kp ([4]; other: injection (or oral administration), brain and plasma extracted 0.25-2.0 hours after injection, LC-MS, read-out: brain/plasma ratio): < 0.5
15 | FC(F)c1ncn2c1Cn1ncnc1-c1cc(I)ccc1-2 | Significant analgesic effect | Significant analgesic effect | Significant analgesic effect | – | –
16 | CC(C)(C)C1C(OCc2cccnc2)=NN2C(c3cc(CO)on3)=NN=CC12 (stereo not drawn) [Compound C3, (3-(3-tert-butyl-2-(3-pyridylmethoxyl)-3,3a-2H-pyrazolo[1,5-d][1,2,4]triazin-7-yl)isoxazole-5-yl)methanol] | – | – | – | – | Neuropathic pain (SNI model), analgesic effect ([1]; 3 mg/kg): efficiently treat pain; also recorded: efficiently suppressed neuropathic pain; CFA induced inflammatory pain model (mechanical pan), analgesic effect ([2]; 3 mg/kg): efficiently treat pain; also recorded: efficiently suppressed heat pain or mechanical pain response; CFA induced inflammatory pain model (heat pain), analgesic effect ([3]; 3 mg/kg): efficiently treat chronic pain; also recorded: efficiently suppressed heat pain or mechanical pain response
17 | Clc1ccc2c(c1)-c1ncnn1Cc1c(Cl)ncn1-2 | Significant analgesic effect | Significant analgesic effect | Significant analgesic effect | – | Kp at 1 h ([4]; in vivo, LC-MS): > 0.2
